Where two headings read alike, the source gives them in different places.
Legend:
Human Jurkat cells = assay: Velcade-induced apoptosis of Jurkat cells, CellTiter-Glo viability; assay type: cell-based
Description: (§1) Human Jurkat cells were seeded in 96-well plates (20000 cells per well). Different concentrations of the compounds were added one hour prior to Velcade treatment, followed by the addition of 50 nM Velcade. After incubation for 24 hours, cell viability was measured by CellTiter-Glo Luminescent Cell Viability Assay.
The rates of cell death were measured in triplicate or quadruplicate in a 96-well or 384-well plate by using SYTOX Green Nucleic Acid Stain (Invitrogen) or ToxiLight Non-destructive Cytotoxicity BioAssay Kit (Lonza). The intensity of luminescence was determined in an EnSpire Multimode Plate Reader (PerkinElmer). Cytotoxicity is expressed as percentages of cell death per well after deducting the background signal in non-induced cells and compared to that of the maximal cell death with 100% Lysis Reagent. The rates of cell viability were determined by using CellTiter-Glo Luminescent Cell Viability Assay (Promega) following the manufacturer's protocol and the results are expressed as percentages of luminescence intensity per well after deducting the background signal in blank well and compared to that of the viability in the non-treated wells. Concentration of drugs used for inducing or inhibiting cell death, mTNFα: 1 ng/ml; 5Z-7-Oxozeaenol: 0.5 μM; Velcade: 50 nM; Apt-1/ICCB-19/ICCB-19i/Nec-1s: 10 μM.

Murine RGC5(661W) cells = assay: RIPK1-dependent apoptosis (RDA) of RGC5 cells induced by TNFα plus 5Z-7-Oxozeaenol; assay type: cell-based; settings: Mus musculus, 21 hours
Description: as §1, with “Murine RGC5(661W)” for “Human Jurkat”, “(4000” for “(20000”, “TNFα” for “Velcade”, “0.5 ng/ml TNFα plus 0.5 μM 5Z-7-Oxozeaenol to induce RIPK1-dependent apoptosis (RDA).” for “50 nM Velcade.”, “21” for “24”

GST-TRADD-C = target: T1, GST-TRADD-C (Homo sapiens, UniProt Q15628); assay: Thermal shift assay with GST-TRADD-C; assay type: binding; settings: GST-TRADD-C 50 μM, compound 250 μM
T1 construct: cDNA encoding GST-tagged hTRADD (Full length or aa180-312); made in house; host or cells: mammalian cells (pEBG plasmid)
Description: To determine stability, purified proteins were made to a final concentration of […]. SYPRO Orange dye was added to the protein to make a final concentration of 2×. Compounds were added in the mix with a final concentration of 250 μM or as indicated and incubated at 4C for 1 h. The experiments were performed in 384-well plates specific for real-time PCR instrument with a total volume of 20 μl/well. The assay plate was covered with a sheet of optically clear adhesive to seal each well. The assay plate was centrifuged at 800×g for 2 min at 25C to collect solutions in the bottom of the well and remove bubbles. The assay plate was placed into the Applied Biosystems QuantStudio 6 Real-Time PCR System. The reaction was run from 25C, ramping up in increments of 0.05° C./s to a final temperature of 95C with fluorescence detection throughout the experiment to generate a dataset. Melting temperature of the protein (Tm) was determined by performing non-linear fitting of the dataset to a Boltzmann Sigmoidal curve in GraphPad Prism with the following equation: Y=Bottom+(Top-Bottom)/[1+exp(Tm-X/Slope)], where Y=fluorescence emission in arbitrary units; X=temperature; Bottom=baseline fluorescence at low temperature; Top=maximal fluorescence at top of the dataset; Slope=describes the steepness of the curve, with larger values denoting shallower curves.

TRADD-N = target: T2, TRADD-N (Homo sapiens, UniProt Q15628); assay: STD-NMR binding to TRADD-N; settings: 1 mM compound, 13 μM TRADD-N
T2 construct: expression constructs encoding Flag-TRADD-N(1-179) and HA-TRADD-C(180-312); His (N); made in house
T2 sequence (Q15628 1-179): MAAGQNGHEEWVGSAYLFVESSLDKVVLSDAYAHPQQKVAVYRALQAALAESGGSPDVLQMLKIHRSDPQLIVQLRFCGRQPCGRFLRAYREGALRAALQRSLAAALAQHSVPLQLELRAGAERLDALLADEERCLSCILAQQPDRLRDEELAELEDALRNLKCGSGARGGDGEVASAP
Description: The on-resonance irradiation of TRADD-N was performed at a chemical shift of −0.5 ppm, whereas the off-resonance irradiation was conducted at 37 ppm. Spectra were acquired using the following parameters: spectral window of 6.4 kHz, number of scans at 320, acquisition time of 2 s, and repetition time of 3 s. The decrease in signal intensity in STD spectrum, resulting from the transfer of saturation from the protein to the ligand, is evaluated by subtracting the on-resonance spectrum from the off-resonance spectrum. This subtraction yields a positive signal from a bound ligand. The asterisks indicate the signals of the compounds.
This saturation quickly propagates throughout the protein by spin diffusion and is transferred to the ligand, which only occurs if it is bound, leading to reduced intensities of the ligand. The STD spectra were acquired on a 400 MHz spectrometer (ICCB-19 and Apt-1) or 800 MHz spectrometer (ICCB-19i). The samples for STD NMR were prepared as 13 μM TRADD-N or TRADD-N(G121A) with 1 mM Apt-1, ICCB-19 or ICCB-19i in 0.5 mL of PBS in D2O (10%). […] The decrease in signal intensity in STD spectrum, resulting from the transfer of saturation from the protein to the ligand, is evaluated by subtracting the on-resonance spectrum from the off-resonance spectrum.

mTOR = mTOR signalling immunoblotting in MEFs; assay type: cell-based, mouse; settings: 10 μM
Source text: Cell lysates analyzed by immunoblotting using indicated antibodies.

MEFs = assay: Necroptosis of MEFs induced by TNFα/5z7/zVAD; assay type: cell-based, mouse; settings: 10 μM
Description: The concentrations of reagents used: mTNFα: 1 ng/mL; (5Z)-7-oxozeaenol: 0.5 μM; zVAD: 20 μM; ICCB-19: 10 μM; Apt-1: 10 μM; Nec-1s: 10 μM. Mean s.d. from technical triplicates (n=3), representative of 3 independent experiments.

RIPK1 = target: T3, RIPK1 (Homo sapiens, UniProt Q13546); assay: Activation of overexpressed Flag-RIPK1 in HEK293T cells (p-S166); assay type: cell-based; settings: 10 μM, 12 h
T3 construct: expressed in transfected cells; host or cells: HEK293T
Description: The activation of RIPK1 was determined by immunoblotting using p-S166 RIPK1 antibody.

[1] = FIG. 5b, Velcade 50 nM, 24 h, read-out: IC50 of inhibition of Velcade-induced apoptosis
[2] = Table 3, 50 nM Velcade, 24 hours, read-out: Jurkat Velcade IC50/μM
[3] = Table 3, 0.5 ng/ml TNFα plus 0.5 μM 5Z-7-Oxozeaenol, read-out: RGC5 T/5z7 IC50/μM

T3 sequence (Q13546 whole entry, species assumed): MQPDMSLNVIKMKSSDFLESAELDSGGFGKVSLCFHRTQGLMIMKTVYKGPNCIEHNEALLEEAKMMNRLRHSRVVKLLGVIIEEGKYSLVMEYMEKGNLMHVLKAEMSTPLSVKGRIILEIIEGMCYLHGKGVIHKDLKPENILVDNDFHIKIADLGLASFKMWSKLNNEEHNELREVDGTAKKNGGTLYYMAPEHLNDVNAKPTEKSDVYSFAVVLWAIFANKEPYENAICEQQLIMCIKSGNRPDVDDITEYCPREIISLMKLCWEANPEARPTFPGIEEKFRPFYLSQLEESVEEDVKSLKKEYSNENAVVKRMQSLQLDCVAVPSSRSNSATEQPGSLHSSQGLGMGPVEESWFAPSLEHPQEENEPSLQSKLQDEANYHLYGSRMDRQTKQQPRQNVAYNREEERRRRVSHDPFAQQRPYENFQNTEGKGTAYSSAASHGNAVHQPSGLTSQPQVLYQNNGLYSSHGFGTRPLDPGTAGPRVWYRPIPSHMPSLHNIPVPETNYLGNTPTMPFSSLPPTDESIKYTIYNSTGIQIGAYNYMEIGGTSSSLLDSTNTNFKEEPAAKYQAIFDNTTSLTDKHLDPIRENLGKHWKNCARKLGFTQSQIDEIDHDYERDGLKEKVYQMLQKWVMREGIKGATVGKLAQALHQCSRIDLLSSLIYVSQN
T1 sequence (Q15628 180-312): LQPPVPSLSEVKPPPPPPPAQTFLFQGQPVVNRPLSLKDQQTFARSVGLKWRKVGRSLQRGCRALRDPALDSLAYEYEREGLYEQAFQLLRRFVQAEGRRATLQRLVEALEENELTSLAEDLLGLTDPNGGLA

| SMILES | IC50 (Human Jurkat cells; [1]) [µM] | IC50 (Human Jurkat cells; Table 1, 50 nM Velcade, 24 hours, read-out: Apoptosis of Jurkat cells induced by Velcade (IC50 μM)) [µM] | IC50 (Human Jurkat cells; [2]) [µM] | IC50 (Murine RGC5(661W) cells; Table 2, 0.5 ng/ml TNFα plus 0.5 μM 5Z-7-Oxozeaenol, read-out: RGC5 T/5z7 IC50) [µM] | IC50 (Murine RGC5(661W) cells; [3]) [µM] | binding to GST-TRADD-C (GST-TRADD-C) | binding with TRADD-N by STD-NMR (TRADD-N) | effect on mTOR (mTOR) | inhibition of necroptosis (MEFs) | inhibition of activation of overexpressed RIPK1 (RIPK1) |
| --- | --- | --- | --- | --- | --- | --- | --- | --- | --- | --- |
| O=C(CSC1=NCCN1)NC1CCCCCC1 [ICCB-19] | ~1 | 1.1 | 1.12 | 0.18 | 2.01 | does not bind | could bind with TRADD-N | no effect on mTOR | partially inhibited | cannot inhibit |
| CN1CCN=C1SC(C(=O)NC1CCCCCC1)c1ccccc1 (stereo not drawn) [Compound 30] | ~1 | – | 0.799 | – | 1.28 | does not bind | could bind with TRADD-N | no effect on mTOR | partially inhibited | cannot inhibit |

Reference: patent publication US20230219898A1, “COMPOUNDS AND METHODS FOR BLOCKING APOPTOSIS AND INDUCING AUTOPHAGY” (President and Fellows of Harvard College, priority 2020, published 2023)
